Patent US10597388B2, “Pyridazinone herbicides” (FMC CORPORATION, priority 2014, dated 2020)

Assays:
Assay type in all cases: in vivo
[1] = tested on: galium (catchweed bedstraw, Galium aparine); assay: Test A greenhouse herbicide test, postemergence
Outline: (§1)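 Seedlings in a loam soil and sand mix received formulated compound postemergence at the one- to two-leaf stage. Greenhouse holding lasts approximately 10 d, then injury is scored visually relative to untreated plants, 0 meaning no effect and 100 complete control.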

[2] = tested on: blackgrass (Alopecurus myosuroides); assay: Test A greenhouse herbicide test, postemergence
Outline: as §1

kochia (Kochia scoparia) = assay: Test A greenhouse herbicide test, pre- and postemergence
Outline: (§2)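 Visual injury ratings, 0 (no effect) to 100 (complete control), versus untreated plants after roughly 10 d in a greenhouse. Compounds, formulated in a surfactant-containing non-phytotoxic solvent, were sprayed on loam–sand soil after sowing (pre) or on one- to two-leaf plants 2–10 cm tall (post).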

[3] = tested on: barnyardgrass (Echinochloa crus-galli); assay: as above
Outline: as §2

[4] = tested on: foxtail, giant (giant foxtail, Setaria faberii); assay: as above
Outline: as §2

[5] = tested on: ragweed (common ragweed, Ambrosia elatior); assay: as above
Outline: as §2

[6] = tested on: pigweed (Amaranthus retroflexus); assay: as above
Outline: as §2

[7] = tested on: wheat (Triticum aestivum); assay: as above; conditions: Postemergence
Outline: as §2

[8] = tested on: ryegrass, Italian (Italian ryegrass, Lolium multiflorum); assay: as above
Outline: as §2

corn (Zea mays) = assay: as above; conditions: Postemergence
Outline: as §2

rice (Oryza sativa) = assay: Test B flooded paddy test; conditions: 250 g ai/ha, Flood; visual rating on scale of 0 to 100 where 0 is no effect and 100 is complete control; 13 to 15 d after treatment
Outline: (§3)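 Ratings use a 0-100 visual scale, where 100 is complete control, and compare treated plants with controls after 13 to 15 d of greenhouse growth. Compound went straight into paddy water kept 3 cm over the soil surface, applied to seedlings at the 2-leaf stage.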

[9] = tested on: barnyardgrass (Echinochloa crus-galli); assay: Test B flooded paddy test; conditions: 250 g ai/ha, Flood; visual rating on scale of 0 to 100 where 0 is no effect and 100 is complete control; 13 to 15 d after treatment
Outline: as §3

[10] = tested on: ducksalad (Heteranthera limosa); assay: Test B flooded paddy test; conditions: 250 g ai/ha, Flood; visual rating on scale of 0 to 100 where 0 is no effect and 100 is complete control; 13 to 15 d after treatment
Outline: as §3

[11] = tested on: sedge, umbrella (small-flower umbrella sedge, Cyperus difformis); assay: Test B flooded paddy test; conditions: 250 g ai/ha, Flood; visual rating on scale of 0 to 100 where 0 is no effect and 100 is complete control; 13 to 15 d after treatment
Outline: as §3

[12] = 125 g ai/ha, 0 to 100 scale, 0 no effect, 100 complete control
[13] = 500 g ai/ha, visual rating after approx. 10 d, 0 to 100 scale (0 no effect, 100 complete control)
[14] = Postemergence, 125 g ai/ha, 0 to 100 scale, 0 no effect, 100 complete control
[15] = Postemergence, 500 g ai/ha, visual rating after approx. 10 d, 0 to 100 scale (0 no effect, 100 complete control)
[16] = Preemergence, 125 g ai/ha, visual injury rating, 0 to 100 scale (0 no effect, 100 complete control), approx. 10 d
[17] = Preemergence, 500 g ai/ha, 0 to 100 scale where 0 is no effect and 100 is complete control

With `CC(=O)Oc1c(C)nn(C)c(=O)c1-c1ccc(Cl)c2ccccc12` [Compound 157] the “Plant response rating, Galium” value [1, 12] was 100, the “Plant response rating, Galium” value [1, 13] was 100 and the “Plant response rating, Blackgrass” value [2, 12] was 60. For the same compound, the “Plant response rating, Blackgrass” value [2, 13] was 70, the “Plant response rating, Kochia” value (kochia (Kochia scoparia); [14]) was 100 and the “Plant response rating, Kochia” value (kochia (Kochia scoparia); [15]) was 100. The “Plant response rating, Kochia” value (kochia (Kochia scoparia); [16]) was 100, the “Plant response rating, Kochia” value (kochia (Kochia scoparia); [17]) was 100 and the “Plant response rating, Barnyardgrass” value [3, 14] was 50. For the same compound, the “Plant response rating, Barnyardgrass” value [3, 15] was 80, the “Plant response rating, Barnyardgrass” value [3, 16] was 70 and the “Plant response rating, Barnyardgrass” value [3, 17] was 90. For the same compound, the “Plant response rating, Foxtail, Giant” value [4, 14] was 60, the “Plant response rating, Foxtail, Giant” value [4, 15] was 80 and the “Plant response rating, Foxtail, Giant” value [4, 16] was 50. For the same compound, the “Plant response rating, Foxtail, Giant” value [4, 17] was 80, the “Plant response rating, Ragweed” value [5, 14] was 100 and the “Plant response rating, Ragweed” value [5, 15] was 100. For the same compound, the “Plant response rating, Ragweed” value [5, 16] was 60, the “Plant response rating, Ragweed” value [5, 17] was 90 and the “Plant response rating, Pigweed” value [6, 14] was 90. The “Plant response rating, Pigweed” value [6, 15] was 100, the “Plant response rating, Pigweed” value [6, 16] was 100 and the “Plant response rating, Pigweed” value [6, 17] was 100. For the same compound, the “Plant response rating, Wheat” value [7, 12] was 0, the “Plant response rating, Wheat” value [7, 13] was 50 and the “Plant response rating, Ryegrass, Italian” value [8, 14] was 100. For the same compound, the “Plant response rating, Ryegrass, Italian” value [8, 15] was 100, the “Plant response rating, Ryegrass, Italian” value [8, 16] was 100 and the “Plant response rating, Ryegrass, Italian” value [8, 17] was 100. The “Plant response rating, Corn” value (corn (Zea mays); [12]) was 0, the “Plant response rating, Corn” value (corn (Zea mays); [13]) was 40 and the “Plant response rating, Rice” value (rice (Oryza sativa)) was 0. For the same compound, the “Plant response rating, Barnyardgrass” value [9] was 20, the “Plant response rating, Ducksalad” value [10] was 0 and the “Plant response rating, Sedge, Umbrella” value [11] was 75.
For `Cc1ccc2sc(C)c(-c3c(OCC#N)c(C)nn(C)c3=O)c2c1` [Compound 160], the “Plant response rating, Galium” value [1, 12] was 70, the “Plant response rating, Galium” value [1, 13] was 90 and the “Plant response rating, Blackgrass” value [2, 12] was 10. For the same compound, the “Plant response rating, Blackgrass” value [2, 13] was 20, the “Plant response rating, Kochia” value (kochia (Kochia scoparia); [14]) was 30 and the “Plant response rating, Kochia” value (kochia (Kochia scoparia); [15]) was 60. The “Plant response rating, Kochia” value (kochia (Kochia scoparia); [16]) was 20, the “Plant response rating, Kochia” value (kochia (Kochia scoparia); [17]) was 20 and the “Plant response rating, Barnyardgrass” value [3, 14] was 10. The “Plant response rating, Barnyardgrass” value [3, 15] was 20, the “Plant response rating, Barnyardgrass” value [3, 16] was 10 and the “Plant response rating, Barnyardgrass” value [3, 17] was 10. The “Plant response rating, Foxtail, Giant” value [4, 14] was 10, the “Plant response rating, Foxtail, Giant” value [4, 15] was 20 and the “Plant response rating, Foxtail, Giant” value [4, 16] was 10. The “Plant response rating, Foxtail, Giant” value [4, 17] was 30, the “Plant response rating, Ragweed” value [5, 14] was 70 and the “Plant response rating, Ragweed” value [5, 15] was 80. The “Plant response rating, Ragweed” value [5, 16] was 30, the “Plant response rating, Ragweed” value [5, 17] was 80 and the “Plant response rating, Pigweed” value [6, 14] was 80. The “Plant response rating, Pigweed” value [6, 15] was 90, the “Plant response rating, Pigweed” value [6, 16] was 50 and the “Plant response rating, Pigweed” value [6, 17] was 100. The “Plant response rating, Wheat” value [7, 12] was 0, the “Plant response rating, Wheat” value [7, 13] was 0 and the “Plant response rating, Ryegrass, Italian” value [8, 14] was 30. For the same compound, the “Plant response rating, Ryegrass, Italian” value [8, 15] was 90, the “Plant response rating, Ryegrass, Italian” value [8, 16] was 20 and the “Plant response rating, Ryegrass, Italian” value [8, 17] was 80. For the same compound, the “Plant response rating, Corn” value (corn (Zea mays); [12]) was 0, the “Plant response rating, Corn” value (corn (Zea mays); [13]) was 0 and the “Plant response rating, Rice” value (rice (Oryza sativa)) was 0. The “Plant response rating, Barnyardgrass” value [9] was 0, the “Plant response rating, Ducksalad” value [10] was 0 and the “Plant response rating, Sedge, Umbrella” value [11] was 0.
With `Cc1nn(C)c(=O)c(-c2c([N+](=O)[O-])ccc3ccccc23)c1OC(=O)C(C)(C)C` [Compound 163] the “Plant response rating, Galium” value [1, 12] was 30, the “Plant response rating, Galium” value [1, 13] was 60 and the “Plant response rating, Blackgrass” value [2, 12] was 0. The “Plant response rating, Blackgrass” value [2, 13] was 20, the “Plant response rating, Kochia” value (kochia (Kochia scoparia); [14]) was 0 and the “Plant response rating, Kochia” value (kochia (Kochia scoparia); [15]) was 20. The “Plant response rating, Kochia” value (kochia (Kochia scoparia); [16]) was 0, the “Plant response rating, Kochia” value (kochia (Kochia scoparia); [17]) was 0 and the “Plant response rating, Barnyardgrass” value [3, 14] was 0. The “Plant response rating, Barnyardgrass” value [3, 15] was 0, the “Plant response rating, Barnyardgrass” value [3, 16] was 0 and the “Plant response rating, Barnyardgrass” value [3, 17] was 0. The “Plant response rating, Foxtail, Giant” value [4, 14] was 0, the “Plant response rating, Foxtail, Giant” value [4, 15] was 0 and the “Plant response rating, Foxtail, Giant” value [4, 16] was 0. For the same compound, the “Plant response rating, Foxtail, Giant” value [4, 17] was 0, the “Plant response rating, Ragweed” value [5, 14] was 0 and the “Plant response rating, Ragweed” value [5, 15] was 0. The “Plant response rating, Ragweed” value [5, 16] was 0, the “Plant response rating, Ragweed” value [5, 17] was 0 and the “Plant response rating, Pigweed” value [6, 14] was 0. The “Plant response rating, Pigweed” value [6, 15] was 20, the “Plant response rating, Pigweed” value [6, 16] was 30 and the “Plant response rating, Pigweed” value [6, 17] was 70. The “Plant response rating, Wheat” value [7, 12] was 0, the “Plant response rating, Wheat” value [7, 13] was 0 and the “Plant response rating, Ryegrass, Italian” value [8, 14] was 20. For the same compound, the “Plant response rating, Ryegrass, Italian” value [8, 15] was 70, the “Plant response rating, Ryegrass, Italian” value [8, 16] was 10 and the “Plant response rating, Ryegrass, Italian” value [8, 17] was 50. The “Plant response rating, Corn” value (corn (Zea mays); [12]) was 0, the “Plant response rating, Corn” value (corn (Zea mays); [13]) was 0 and the “Plant response rating, Rice” value (rice (Oryza sativa)) was 0. For the same compound, the “Plant response rating, Barnyardgrass” value [9] was 0, the “Plant response rating, Ducksalad” value [10] was 0 and the “Plant response rating, Sedge, Umbrella” value [11] was 0.
In the case of `Cc1n[nH]c(=O)c(-c2cccc3ccccc23)c1O` [Compound 169], the “Plant response rating, Galium” value [1, 12] is reported as 30, the “Plant response rating, Galium” value [1, 13] is reported as 70 and the “Plant response rating, Blackgrass” value [2, 12] is reported as 10. The “Plant response rating, Blackgrass” value [2, 13] was 20, the “Plant response rating, Kochia” value (kochia (Kochia scoparia); [14]) was 40 and the “Plant response rating, Kochia” value (kochia (Kochia scoparia); [15]) was 100. For the same compound, the “Plant response rating, Kochia” value (kochia (Kochia scoparia); [16]) was 20, the “Plant response rating, Kochia” value (kochia (Kochia scoparia); [17]) was 90 and the “Plant response rating, Barnyardgrass” value [3, 14] was 0. For the same compound, the “Plant response rating, Barnyardgrass” value [3, 15] was 20, the “Plant response rating, Barnyardgrass” value [3, 16] was 0 and the “Plant response rating, Barnyardgrass” value [3, 17] was 30. For the same compound, the “Plant response rating, Foxtail, Giant” value [4, 14] was 0, the “Plant response rating, Foxtail, Giant” value [4, 15] was 30 and the “Plant response rating, Foxtail, Giant” value [4, 16] was 0. The “Plant response rating, Foxtail, Giant” value [4, 17] was 30, the “Plant response rating, Ragweed” value [5, 14] was 0 and the “Plant response rating, Ragweed” value [5, 15] was 80. The “Plant response rating, Ragweed” value [5, 16] was 0, the “Plant response rating, Ragweed” value [5, 17] was 20 and the “Plant response rating, Pigweed” value [6, 14] was 20. For the same compound, the “Plant response rating, Pigweed” value [6, 15] was 70, the “Plant response rating, Pigweed” value [6, 16] was 50 and the “Plant response rating, Pigweed” value [6, 17] was 100. For the same compound, the “Plant response rating, Wheat” value [7, 12] was 0, the “Plant response rating, Wheat” value [7, 13] was 30 and the “Plant response rating, Ryegrass, Italian” value [8, 14] was 70. For the same compound, the “Plant response rating, Ryegrass, Italian” value [8, 15] was 100, the “Plant response rating, Ryegrass, Italian” value [8, 16] was 80 and the “Plant response rating, Ryegrass, Italian” value [8, 17] was 100. The “Plant response rating, Corn” value (corn (Zea mays); [12]) was 0, the “Plant response rating, Corn” value (corn (Zea mays); [13]) was 30 and the “Plant response rating, Rice” value (rice (Oryza sativa)) was 0. For the same compound, the “Plant response rating, Barnyardgrass” value [9] was 0, the “Plant response rating, Ducksalad” value [10] was 0 and the “Plant response rating, Sedge, Umbrella” value [11] was 0.
